In patent US12358948B2, “Neurotensinergic agonists and methods of using same preventing or treating pain” (priority 2019, dated 2025):
Values joined by “and” are separate entries in the source; they are usually repeats but may differ in a detail not shown here. Identical values can stand only once. “Also recorded” adds a separate entry of the source. Where a SMILES comes first, the peptide text is derived from it. Bridges are numbered along the chain shown (N, C = ends). [ ]: non-standard residue; d: D form. Ala(cPent) = N[C@@H](CC1CCCC1)C(=O)O; AllylGly = C=CC[C@H](N)C(=O)O

How the values were obtained:
hNTS2 receptor = biological target: T1, hNTS2 receptor (Homo sapiens, UniProt O95665); test: Competitive radioligand binding assay on the hNTS2 receptor; conditions: for IC50: IC50 NTS2, displacement of 125I-[Tyr3]-NT, membranes of 1321N1 cells expressing hNTS2; for Selectivity: ratio IC50 for NTS1 : IC50 for NTS2
T1 construct: membranes prepared from them
Procedure, shortened: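 Membranes from CHO-K1 cells expressing hNTS1 (15 µg, […] ¹²⁵I-[Tyr³]-NT) or 1321N1 cells expressing hNTS2 (50 µg, […] radioligand) were incubated with analogues at 10⁻¹¹–10⁻⁴ M for 60 min at 25 °C in Tris-HCl pH 7.5/0.2% BSA. Filtration and γ-counting followed; nonspecific binding was defined with 10⁻⁵ M NT(8-13), and IC50 was obtained by one-site fit.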

ileum = test: Ileum relaxation assay ex vivo; design: species or system rat; conditions: 10^−11 to 10^−5 M, after contraction with carbachol
Procedure: The functional ileum bioassay was carried out as described in detail elsewhere. (Van der Poorten, O., Van Den Hauwe, R., Eiselt, E., Betti, C., Guillemyn, K., Chung, N. N., Hall, F., Bihel, F., Schiller, P. W., Tourwé, D., Sarret, P., Gendron, L, . . . Ballet, S. (2017). X-Space Screening of Dermorphin-Based Tetrapeptides through Use of Constrained Arylazepinone and Quinolinone Scaffolds. ACS medicinal chemistry letters, 8(11), 1177-1182) Briefly, rats were euthanized, and 2 cm ileum segments were dissected out before removal of extraneous fat and connective tissue.
The ileum was then mounted under 0.5-g tension in a 10 mL organ bath containing warmed (37° C.) and oxygenated (95% O2, 5% CO2) Krebs solution (6.9 g/L NaCl, 0.145 g/L MgSO4, 2.1 g/L NaHCO3, 0.35 g/L KCl, 0.165 g/L KH2PO4, 1.98 g/L dextrose and 0.28 g/L CaCl2)). […] Contractions of the muscle were recorded via an isometric force transducer (159901A, Radnoti, Monrovia, CA, USA). […]
Each concentration of the compounds tested were followed by 2×15-min washout periods in Krebs solution to allow full relaxation. Dose-response curves were obtained with NT (8-13) (10^−11 to 10^−6) as standard for each ileum and for compound 34(10^−11 to 10^−5) and IC50 values were determined. […]
Data are expressed as mean±standard errors of the mean (SEM). […]

T1 sequence (O95665 whole entry): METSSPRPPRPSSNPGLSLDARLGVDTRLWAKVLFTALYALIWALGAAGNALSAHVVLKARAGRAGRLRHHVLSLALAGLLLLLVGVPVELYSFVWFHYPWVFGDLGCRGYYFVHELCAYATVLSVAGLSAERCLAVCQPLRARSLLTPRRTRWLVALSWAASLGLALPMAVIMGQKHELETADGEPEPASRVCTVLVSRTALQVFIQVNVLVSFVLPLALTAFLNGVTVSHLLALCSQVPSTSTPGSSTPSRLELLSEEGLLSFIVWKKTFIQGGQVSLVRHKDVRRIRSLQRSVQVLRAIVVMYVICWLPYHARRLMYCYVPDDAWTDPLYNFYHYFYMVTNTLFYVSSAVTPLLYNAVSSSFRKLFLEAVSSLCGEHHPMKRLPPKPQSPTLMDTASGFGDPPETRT

SMILES	IC50 (hNTS2 receptor)	Selectivity (hNTS2 receptor)	Ileum relaxation (ileum)
CC(C)C[C@H](NC(=O)[C@H](Cc1ccc(O)cc1)NC(=O)[C@@H]1CC=CC[C@H](N)C(=O)N[C@@H](CCCCN)C(=O)N[C@@H](CCCCN)C(=O)N1)C(=O)O [compound 34, c[G(All)KKG(All)]YL] (H-[AllylGly]KK[AllylGly]YL-OH; staple 1-4)	59.6 nM	3339 and 1685	doesn't impact gut motility; also recorded: No ileum
NCCCC[C@@H]1NC(=O)[C@H](CCCCN)NC(=O)[C@@H](N)CC=CC[C@@H](C(=O)N[C@@H](Cc2ccc(O)cc2)C(=O)N[C@@H](CC2CCCC2)C(=O)O)NC1=O [compound 67, c[G(All)KKG(All)]YA(cyclopentyl)] (H-[AllylGly]KK[AllylGly]Y[Ala(cPent)]-OH; staple 1-4)	3.06 nM	>32 680	
